The source of these data is patent US20200055897A1, “MODIFIED PEPTOIDS” (Technion Research & Development Foundation Limited, priority 2017, published 2020).

Starred links: 1 amine or outer side, 2 acyl side, 3 side chain; linkers in the order of their positions; H or OH if unused. Non-standard residues stand in square brackets, D forms with d. Residues, ends and D or L forms follow the SMILES beside them. *: point of attachment. N(1S-cyclohexylethyl)Gly = C[C@H](NCC(=O)O)C1CCCCC1; Gly(N-CH2CH2C6H4-4Cl) = O=C(O)CNCCc1ccc(Cl)cc1; NMeGly(N-(2-F-benzyl)) = CN(CC(=O)*)Cc1ccccc1F; Acetyl(2-(piperazin-1-yl)) = O=C(CN1CCNCC1)*; Hydrazinoacetyl = O=C(CNN[*:1])[*:2]; Gly(Nα-NHCO2Et) = CCOC(=O)NNCC(=O)O; Nrpe = C[C@@H](NCC(=O)O)c1ccccc1; Nspe = C[C@H](NCC(=O)O)c1ccccc1; X1 = O=C(CN1CCN([*:1])CC1)[*:2]; Ethoxycarbonyl = CCOC(=O)*; Nphe = O=C(O)CNCc1ccccc1; X5 = NC(=O)CN1CCN(*)CC1; X3 = O=C(CN1CCCNCC1)*

The nature of one data set: General method for water solubility test (gradual addition of water to 1 mg peptoid until clear). It is filed as physicochemical.
Settings: not given
As to the method:
1 mg peptoid was placed in an Eppendorf container and water was added gradually (e.g., […] per addition) until a clear solution was obtained. The solubility test was repeated three times and average values are presented. The limit of the test was typically 2.0×10^2 mg/liter (i.e., 1 mg per 5 ml).
Water solubility tests were carried out by a gradual addition of 5 μl distilled water to 1 mg peptoid until a clear solution was obtained. This assay was repeated three times and results were averaged.
Regarding `C[C@H](NCC(=O)N(CC(=O)N(CC(=O)N(CC(=O)N(CC(=O)N(CC(N)=O)[C@@H](C)c1ccccc1)[C@@H](C)c1ccccc1)[C@@H](C)c1ccccc1)[C@@H](C)c1ccccc1)[C@@H](C)c1ccccc1)c1ccccc1` [Peptoid P1, (Nspe)6, reference compound] (H-[Nspe][Nspe][Nspe][Nspe][Nspe][Nspe]-NH2), the solubility is below 0.2 mg/mL. Still for that read-out and setting: for `C[C@H](NCC(=O)N(CC(=O)N(CC(=O)N(CC(=O)N(CC(=O)N(CC(=O)N1CCN(CC(N)=O)CC1)[C@@H](C)c1ccccc1)[C@@H](C)c1ccccc1)[C@@H](C)c1ccccc1)[C@@H](C)c1ccccc1)[C@@H](C)c1ccccc1)c1ccccc1` [Peptoid P3, Npz-(Nspe)6] (H-[Nspe][Nspe][Nspe][Nspe][Nspe][Nspe]-X5) the value was around 900 µM; for `C[C@@H](c1ccccc1)N1CC(=O)N(CC(N)=O)CCCN2CCN(CC2)CC(=O)N([C@@H](C)c2ccccc2)CC(=O)N([C@@H](C)c2ccccc2)CC(=O)N([C@@H](C)c2ccccc2)CC(=O)N([C@@H](C)c2ccccc2)CC(=O)N([C@@H](C)c2ccccc2)CC1=O` [Peptoid P4, Npl-(Nspe)6-Npz (cyclic)], around 700 µM.

As to `C[C@@H](c1ccccc1)N(CC(N)=O)C(=O)CN(C(=O)CN(C(=O)CN(C(=O)CN(C(=O)CN(C(=O)CN1CCCNCC1)[C@@H](C)c1ccccc1)[C@@H](C)c1ccccc1)[C@@H](C)c1ccccc1)[C@@H](C)c1ccccc1)[C@@H](C)c1ccccc1` [Peptoid P7, (Nspe)6-Nhpz] (X3-[Nspe][Nspe][Nspe][Nspe][Nspe][Nspe]-NH2), the “Water solubility relative to that of P2” value is “about 50 times” and the solubility turned out to be 49.6 mg/mL. Regarding `C[C@H](NCC(=O)N(CC(=O)N(CC(=O)N(CC(N)=O)[C@@H](C)c1cccc2ccccc12)[C@@H](C)c1cccc2ccccc12)[C@@H](C)c1cccc2ccccc12)c1cccc2ccccc12` [Peptoid P9, (Ns1npe)4, reference compound], the solubility was below 0.2 mg/mL. Still for that read-out and setting: the figure for `C[C@H](NCC(=O)N(CC(=O)N(CC(=O)N(CC(=O)N(CC(N)=O)[C@@H](C)C1CCCCC1)[C@@H](C)C1CCCCC1)[C@@H](C)C1CCCCC1)[C@@H](C)C1CCCCC1)C1CCCCC1` [Peptoid P10, (Nsch)5, reference compound] is below 0.2 mg/mL; for `C[C@@H](C1CCCCC1)N(CC(=O)N(CCc1ccc(Cl)cc1)CC(=O)N(CC(=O)N(CC(=O)N(CC(N)=O)Cc1ccccc1)Cc1ccccc1)[C@@H](C)C1CCCCC1)C(=O)CN(C)Cc1ccccc1F` [Peptoid P11, (Npm)2-Nsch-Ncpe-Nsch-Nfpm, reference compound] ({NMeGly(N-(2-F-benzyl))}-[N(1S-cyclohexylethyl)Gly][Gly(N-CH2CH2C6H4-4Cl)][N(1S-cyclohexylethyl)Gly][Nphe][Nphe]-NH2) it is below 0.2 mg/mL. Same read-out and setting: the figure for `C[C@@H](c1cccc2ccccc12)N(CC(N)=O)C(=O)CN(C(=O)CN(C(=O)CN(C(=O)CN1CCNCC1)[C@@H](C)c1cccc2ccccc12)[C@@H](C)c1cccc2ccccc12)[C@@H](C)c1cccc2ccccc12` [Peptoid P12, (Ns1npe)4-Npz] is below 0.2 mg/mL; for `C[C@H](NCC(=O)N(CC(=O)N(CC(=O)N(CC(=O)N1CCN(CC(N)=O)CC1)[C@@H](C)c1cccc2ccccc12)[C@@H](C)c1cccc2ccccc12)[C@@H](C)c1cccc2ccccc12)c1cccc2ccccc12` [Peptoid P13, Npz-(Ns1npe)4] it is below 0.2 mg/mL; for `C[C@@H](c1cccc2ccccc12)N(CC(N)=O)C(=O)CN(C(=O)CN(C(=O)CN(C(=O)CN1CCCNCC1)[C@@H](C)c1cccc2ccccc12)[C@@H](C)c1cccc2ccccc12)[C@@H](C)c1cccc2ccccc12` [Peptoid P14, (Ns1npe)4-Nhpz] it is below 0.2 mg/mL. Still for that read-out and setting: the figure for `C[C@@H](C1CCCCC1)N(CC(N)=O)C(=O)CN(C(=O)CN(C(=O)CN(C(=O)CN(C(=O)CN1CCNCC1)[C@@H](C)C1CCCCC1)[C@@H](C)C1CCCCC1)[C@@H](C)C1CCCCC1)[C@@H](C)C1CCCCC1` [Peptoid P15, (Nsch)5-Npz] is below 0.2 mg/mL.

`C[C@@H](C1CCCCC1)N(CC(N)=O)C(=O)CN(C(=O)CN(C(=O)CN(C(=O)CN(C(=O)CN1CCCNCC1)[C@@H](C)C1CCCCC1)[C@@H](C)C1CCCCC1)[C@@H](C)C1CCCCC1)[C@@H](C)C1CCCCC1` [Peptoid P16, (Nsch)5-Nhpz] registered a solubility below 0.2 mg/mL.

In the case of `C[C@@H](C1CCCCC1)N(CC(=O)N(CCc1ccc(Cl)cc1)CC(=O)N(CC(=O)N(CC(=O)N(CC(=O)N1CCN(CC(N)=O)CC1)Cc1ccccc1)Cc1ccccc1)[C@@H](C)C1CCCCC1)C(=O)CN(C)Cc1ccccc1F` [Peptoid P17, Npz-(Npm)2-Nsch-Ncpe-Nsch-Nfpm] ({NMeGly(N-(2-F-benzyl))}-[N(1S-cyclohexylethyl)Gly][Gly(N-CH2CH2C6H4-4Cl)][N(1S-cyclohexylethyl)Gly][Nphe][Nphe]-X5), the solubility is below 0.2 mg/mL.

The compound `C[C@@H](C1CCCCC1)N(CC(N)=O)C(=O)CN(C(=O)CN(C(=O)CN(C(=O)CN(C(=O)CN1CCN(C(=O)CN2CCNCC2)CC1)[C@@H](C)C1CCCCC1)[C@@H](C)C1CCCCC1)[C@@H](C)C1CCCCC1)[C@@H](C)C1CCCCC1` [Peptoid P19, (Nsch)5-(Npz)2] ({Acetyl(2-(piperazin-1-yl))}-[X1][N(1S-cyclohexylethyl)Gly][N(1S-cyclohexylethyl)Gly][N(1S-cyclohexylethyl)Gly][N(1S-cyclohexylethyl)Gly][N(1S-cyclohexylethyl)Gly]-NH2) had a solubility of 7.52 mg/mL. Still for that read-out and setting: for `C[C@@H](C1CCCCC1)N(CC(=O)N(CCc1ccc(Cl)cc1)CC(=O)N(CC(=O)N(CC(=O)N(CC(=O)N1CCN(CC(=O)N2CCN(CC(N)=O)CC2)CC1)Cc1ccccc1)Cc1ccccc1)[C@@H](C)C1CCCCC1)C(=O)CN(C)Cc1ccccc1F` [Peptoid P20, (Npz)2-(Npm)2-Nsch-Ncpe-Nsch-Nfpm] ({NMeGly(N-(2-F-benzyl))}-[N(1S-cyclohexylethyl)Gly][Gly(N-CH2CH2C6H4-4Cl)][N(1S-cyclohexylethyl)Gly][Nphe][Nphe][X1]-X5) the value was 84.4 mg/mL; for `C[C@@H](C1CCCCC1)N(CC(N)=O)C(=O)CN(C(=O)CN(C(=O)CN(C(=O)CN(C(=O)CN1CCN(C(=O)CN2CCN(C(=O)CN3CCNCC3)CC2)CC1)[C@@H](C)C1CCCCC1)[C@@H](C)C1CCCCC1)[C@@H](C)C1CCCCC1)[C@@H](C)C1CCCCC1` [Peptoid P22, (Nsch)5-(Npz)3] ({Acetyl(2-(piperazin-1-yl))}-[X1][X1][N(1S-cyclohexylethyl)Gly][N(1S-cyclohexylethyl)Gly][N(1S-cyclohexylethyl)Gly][N(1S-cyclohexylethyl)Gly][N(1S-cyclohexylethyl)Gly]-NH2), 73.5 mg/mL.

The compound `C[C@@H](C1CCCCC1)N(CC(=O)N(CCc1ccc(Cl)cc1)CC(=O)N(CC(=O)N(CC(=O)N(CC(=O)N1CCN(CC(=O)N2CCN(CC(=O)N3CCN(CC(N)=O)CC3)CC2)CC1)Cc1ccccc1)Cc1ccccc1)[C@@H](C)C1CCCCC1)C(=O)CN(C)Cc1ccccc1F` [Peptoid P23, (Npz)3-(Npm)2-Nsch-Ncpe-Nsch-Nfpm] ({NMeGly(N-(2-F-benzyl))}-[N(1S-cyclohexylethyl)Gly][Gly(N-CH2CH2C6H4-4Cl)][N(1S-cyclohexylethyl)Gly][Nphe][Nphe][X1][X1]-X5) came in with a solubility of 135 mg/mL. The same measure, in the same setting: the figure for `C[C@H](c1ccccc1)N(CCC(N)=O)C(=O)CCN(C(=O)CCN(C(=O)CCN(C(=O)CCN(C(=O)CCN[C@H](C)c1ccccc1)[C@H](C)c1ccccc1)[C@H](C)c1ccccc1)[C@H](C)c1ccccc1)[C@H](C)c1ccccc1` [Peptoid P24, reference compound] is below 0.2 mg/mL. `C[C@H](c1ccccc1)N(CCC(N)=O)C(=O)CCN(C(=O)CCN(C(=O)CCN(C(=O)CCN(C(=O)CCN(C(=O)CN1CCNCC1)[C@H](C)c1ccccc1)[C@H](C)c1ccccc1)[C@H](C)c1ccccc1)[C@H](C)c1ccccc1)[C@H](C)c1ccccc1` [Peptoid P25] showed a solubility below 0.2 mg/mL.

Compound `C[C@H](c1ccccc1)N(CCC(N)=O)C(=O)CCN(C(=O)CCN(C(=O)CCN(C(=O)CCN(C(=O)CCN(C(=O)CN1CCN(C(=O)CN2CCNCC2)CC1)[C@H](C)c1ccccc1)[C@H](C)c1ccccc1)[C@H](C)c1ccccc1)[C@H](C)c1ccccc1)[C@H](C)c1ccccc1` [Peptoid P26] showed a solubility of 103 mg/mL.

Take `CCOC(=O)NNCC(=O)N(CC(=O)N(CC(=O)N(CC(=O)N(CC(=O)N(CC(N)=O)[C@H](C)c1ccccc1)NC(=O)OCC)[C@H](C)c1ccccc1)NC(=O)OCC)[C@H](C)c1ccccc1` [Peptoid P28, reference compound] (Ethoxycarbonyl-[Hydrazinoacetyl][Nrpe][Gly(Nα-NHCO2Et)][Nrpe][Gly(Nα-NHCO2Et)][Nrpe]-NH2): the solubility is below 0.2 mg/mL. `CCOC(=O)NN(CC(=O)N(CC(N)=O)[C@H](C)c1ccccc1)C(=O)CN(C(=O)CN(NC(=O)OCC)C(=O)CN(C(=O)CN(NC(=O)OCC)C(=O)CN1CCNCC1)[C@H](C)c1ccccc1)[C@H](C)c1ccccc1` [Peptoid P29] ({Acetyl(2-(piperazin-1-yl))}-[Gly(Nα-NHCO2Et)][Nrpe][Gly(Nα-NHCO2Et)][Nrpe][Gly(Nα-NHCO2Et)][Nrpe]-NH2): the solubility was found to be 50.6 mg/mL.

Staying with this data set, now noted: pH 10.5.
As for `C[C@@H](c1ccccc1)N(CC(N)=O)C(=O)CN(C(=O)CN(C(=O)CN(C(=O)CN(C(=O)CN(C(=O)CN1CCN(C(=O)CN2CCN(C(=O)CN3CCNCC3)CC2)CC1)[C@@H](C)c1ccccc1)[C@@H](C)c1ccccc1)[C@@H](C)c1ccccc1)[C@@H](C)c1ccccc1)[C@@H](C)c1ccccc1` [Peptoid P6, (Nspe)6-(Npz)3] ({Acetyl(2-(piperazin-1-yl))}-[X1][X1][Nspe][Nspe][Nspe][Nspe][Nspe][Nspe]-NH2), the “Water solubility at pH 10.5 (in words)” value is reported as “highly soluble” and the “Water solubility relative to that of P2 at pH 10.5” value is on record as 106 times.

Staying with this data set, now noted: water; average of three tests; limit of test 2.0×10^2 mg/liter; read-out: Water solubility.
On to `C[C@@H](c1ccccc1)N(CC(N)=O)C(=O)CN(C(=O)CN(C(=O)CN(C(=O)CN(C(=O)CN(C(=O)CN1CCN(C(=O)CN2CCN(C(=O)CN3CCNCC3)CC2)CC1)[C@@H](C)c1ccccc1)[C@@H](C)c1ccccc1)[C@@H](C)c1ccccc1)[C@@H](C)c1ccccc1)[C@@H](C)c1ccccc1` [Peptoid P6, (Nspe)6-(Npz)3] ({Acetyl(2-(piperazin-1-yl))}-[X1][X1][Nspe][Nspe][Nspe][Nspe][Nspe][Nspe]-NH2), for which the solubility came to 88.6 mg/mL.

For `C[C@H](c1ccccc1)N(CCC(N)=O)C(=O)CCN(C(=O)CCN(C(=O)CCN(C(=O)CCN(C(=O)CCN(C(=O)CN1CCN(C(=O)CN2CCN(C(=O)CN3CCNCC3)CC2)CC1)[C@H](C)c1ccccc1)[C@H](C)c1ccccc1)[C@H](C)c1ccccc1)[C@H](C)c1ccccc1)[C@H](C)c1ccccc1` [Peptoid P27], the solubility turned out to be 196 mg/mL.
